“And” between values parts separate entries of the source, which are not always exact repeats. Identical values can stand only once.
Tests used:
[1] = cited from earlier work
[2] = Detection probes on interproximal models of extracted human teeth; conditions: for optical signal of early stage caries lesion with bound probe (photograph): synthetic tooth preparation, FIG. 3-8
Procedure: Interproximal models of extracted human teeth (molars and premolars) were fabricated using silicon impression materials. Interproximal enamel caries at about […] depth and at about 1.5 mm depth were prepared by using areas of interproximal contact regions. The dental preparations having synthetic caries were assessed by radiographic films (bitewings) and a microscope.
A cotton ball was saturated with the detection probe, and placed in contact with the region of the interproximal enamel caries. The bound probe was observed by illuminating over a varying set of different wavelengths of excitation light, followed by detecting light of fluorescent emissions. Furthermore, absorbance of the illuminating wavelengths was detected as appropriate for each probe.
Each tooth preparation having interproximal enamel caries and bound probe was illuminated and photographed.
(§1) Probes were tested for appropriate concentration, kinetics of binding and retention. Intensity of the illumination light, and the size of the illumination light beam were varied, and data were recorded for each probe. […] The concentration of each probe was varied to determine an optimum concentration for binding during a time period suitable for dental use. Durations of contacting were also tested, for example about 10 seconds, about 20 seconds, about 40 seconds, or about 60 seconds.

[3] = part of regular human diet or excess excreted; cited from earlier work
[4] = Hydrogen peroxide removal of OsteoSense 750 from five teeth having caries, absorbance at 750 nm; conditions: teeth A to E
[5] = Intensity and duration of fluorescence of diluted probes bound to caries; conditions: deep and shallow lesions
Procedure: as §1

Row | Compound | optical signal of early stage caries lesion with bound probe (photograph) [2] | known toxicity [3] | also measured
1 | Cc1cc2nc3c(=O)[nH]c(=O)nc-3n(C[C@H](O)[C@H](O)[C@H](O)CO)c2cc1C [Riboflavin] | – | – | water solubility [1]: water soluble
2 | C=Cc1c(C)c2cc3nc(c4c5[n-]c(cc6nc(cc1[n-]2)C(C)=C6CC)c(C)c5C(=O)[C@@H]4C(=O)OC)[C@@H](CCC(=O)OC/C=C(\C)CCC[C@H](C)CCC[C@H](C)CCCC(C)C)[C@@H]3C.[Mg+2] [Chlorophyll A] | Fluorescence of an early stage caries lesion was observed | no known toxicity | interproximal caries observed with probe ([2]; excitation light, emission detected, FIG. 9): Interproximal caries were observed
3 | COc1cccc2c1C(=O)c1c(O)c3c(c(O)c1C2=O)C[C@@](O)(C(=O)CO)C[C@@H]3O[C@H]1C[C@H](N)[C@H](O)[C@H](C)O1 [Doxorubicin] | Fluorescence of an early stage caries lesion was observed | – | –
4 | OO [hydrogen peroxide] | – | – | % OsteoSense 750 removed (g) [4]: 80% and 93% and 88%
5 | C1=Cc2cc3ccc(cc4nc(cc5ccc(cc1n2)[nH]5)C=C4)[nH]3 [Porphyrin] | Fluorescence of an early stage caries lesion was observed | no known toxicity | –
6 | CCN1C(=CC=CC=CC=CC2=[N+](CCCCCC(=O)O)c3ccc(S(=O)(=O)O)cc3C2(C)C)C(C)(C)c2cc(S(=O)(=O)[O-])ccc21 [Cy7] | – | – | fluorescent intensity compared to IR820 (ICG) ([5]; 1:10 and 1:100 dilutions): greater fluorescent intensity at each concentration and lesion depth compared to IR820 (ICG); retained fluorescence intensity compared to CardioGreen (ICG) ([5]; diluted 1:10): retained much greater intensity in both deep and shallow lesions compared to images of CardioGreen (ICG) diluted 1:10
